Values of other authors as cited in US20220288054A1, “COMPOSITIONS AND METHODS TO TREAT NON-ALCOHOLIC FATTY LIVER DISEASES (NAFLD)” (Coherus Biosciences, Inc., priority 2019, published 2022).

How the values were obtained:
[1] = monotherapy, STELLAR-4 phase 3
diabetic rodents = details: administered to diabetic rodents

For `CCCCOCCOc1ccc(-c2ccc3c(c2)/C=C(/C(=O)Nc2ccc([S@@+]([O-])Cc4cncn4CCC)cc2)CCCN3CC(C)C)cc1` [Cenicriviroc], the safety profile (289 patients, 1 year of therapy) is listed as “excellent safety profile”, the liver fibrosis improvement (289 patients, after 1 year of therapy) is listed as “consistently demonstrated liver fibrosis improvement” and the antifibrotic activity (adult patients with NASH and fibrosis, phase 2b) is listed as “provided antifibrotic activity”. The tolerability (adult patients, oral, phase 2b) was “well-tolerated”.

In the case of `Cc1cc(F)c(C(=O)Nc2cccc(-c3nncn3C(C)C)n2)cc1-n1cnc(C2CC2)c1` [selonsertib], the primary endpoint [1] is given as “failed to meet the primary endpoint”.

B1: FGF21: amino acid sequence shown in FIG. 3 (SEQ ID NO: 3) (protein, listed as Homo sapiens)
chain: MDSDETGFEHSGLWVSVLAGLLLGACQAHPIPDSSPLLQFGGQVRQRYLYTDDAQQTEAHLEIREDGTVGGAADQSPESLLQLKALKPGVIQILGVKTSRFLCQRPDGALYGSLHFDPEACSFRELLLEDGYNVYQSEAHGLPLHLPGNKSPHRDPAPRGPARFLPLPGLPPALPEPPGILAPQPPDVGSSDPLSMVGPSQGRSPSYAS
In the case of B1, the glucose uptake (mouse adipocytes) is listed as “activates glucose uptake” and the “blood glucose and triglyceride levels” value (diabetic rodents) is listed as “lower blood glucose and triglyceride levels”.
